The series concerns GENE-TOX genotoxicity assays, various organisms and cells. Put plainly: GENE-TOX mutagenicity studies. Conditions: for call: Assay Type: In vivo carcinogenicity studies.
[1] abbreviates: Species/Cell Type: Arabidopsis species, Assay Type: Gene mutation, Assay Code: ARM+D, Dose Response: With dose response, Evaluation Type: Evaluation A (Pre-1980).
The mark [2] stands for this setting: Species/Cell Type: Nonhuman, Assay Code: CCG+, Evaluation Type: Evaluation A (Pre-1980).
[3] abbreviates: Species/Cell Type: Drosophila melanogaster, Assay Type: Sex-linked recessive lethal gene mutation, Assay Code: SRLT, Evaluation Type: Evaluation A (Pre-1980).
[4] abbreviates: Species/Cell Type: Salmonella typhimurium (one or more of the five standard strains: TA98, TA100, TA1535, TA1537, and TA1538), Assay Type: Histidine reverse gene mutation, Ames assay, Assay Code: SAL+*, Activation: With metabolic activation, Evaluation Type: Evaluation A (Pre-1980).
[5] abbreviates: Species/Cell Type: Salmonella typhimurium (one or more of the five standard strains: TA98, TA100, TA1535, TA1537, and TA1538), Assay Type: Histidine reverse gene mutation, Ames assay, Assay Code: SAL+, Evaluation Type: Evaluation A (Pre-1980).
The mark [6] stands for this setting: Species/Cell Type: Neurospora crassa, Assay Type: Forward gene mutation, Assay Code: NEF+, Evaluation Type: Evaluation A (Pre-1980).
Setting [7] is: Species/Cell Type: Schizosaccharomyces pombe, Assay Type: Reverse gene mutation, Assay Code: YEZ+, Evaluation Type: Evaluation A (Pre-1980).
The mark [8] stands for this setting: Species/Cell Type: Mouse, Sex: Male, Assay Type: Sperm morphology, Assay Code: SPI-, Evaluation Type: Evaluation A (Pre-1980).
Setting [9] is: Species/Cell Type: Nonhuman, Assay Type: Sister-chromatid exchange (SCE) in vitro, Assay Code: SC2T, Evaluation Type: Evaluation B (Post-1980).
Setting [10] is: Species/Cell Type: Nonhuman, Assay Type: Sister-chromatid exchange (SCE) in vitro, Assay Code: SC2+, Evaluation Type: Evaluation B (Post-1980).
The mark [11] stands for this setting: Species/Cell Type: Drosophila melanogaster, Assay Type: Sex-linked recessive lethal gene mutation, Assay Code: SRL+, Evaluation Type: Evaluation A (Pre-1980).
The mark [12] stands for this setting: Species/Cell Type: Salmonella typhimurium (one or more of the five standard strains: TA98, TA100, TA1535, TA1537, and TA1538), Assay Type: Histidine reverse gene mutation, Ames assay, Assay Code: SALT, Evaluation Type: Evaluation A (Pre-1980).

The source made the active and inactive calls. No rule for the calls is given here.

Data on 26 compounds can be found in PubChem BioAssay AID1259408 (Genetic Toxicology Data Bank (GENE-TOX), 2018).

As for `CCCCN(N=O)C(N)=O`, the mutagenic call under setting [1] was “active; positive”; the mutagenic call (Species/Cell Type: Chinese hamster ovary (CHO) cells, Assay Type: Forward gene mutation at the HPRT locus, Assay Code: CHO+D, Dose Response: With dose response, Evaluation Type: Evaluation A (Pre-1980)) was “active; positive”; the mutagenic call (Species/Cell Type: Human diploid fibroblasts, Assay Type: Unscheduled DNA synthesis (UDS) in vitro, DNA effects, Assay Code: UDH-, Evaluation Type: Evaluation A (Pre-1980)) is “inactive; negative”; the mutagenic call (Species/Cell Type: Nonhuman, Assay Type: Chromosome aberrations in vitro, Assay Code: CY&+D, Dose Response: With dose response, Evaluation Type: Evaluation A (Pre-1980)) was “active; positive”; the mutagenic call (Species/Cell Type: Nonhuman, Assay Type: Sister-chromatid exchange (SCE) in vitro, Assay Code: SC2+D, Dose Response: With dose response, Evaluation Type: Evaluation A (Pre-1980)) is “active; positive”; the mutagenic call (Species/Cell Type: Rodents, Sex: Male, Assay Type: Dominant lethal test, Assay Code: DLT-, Evaluation Type: Evaluation A (Pre-1980)) was “inactive; negative”. The mutagenic call reads like this: (Species/Cell Type: Saccharomyces cerevisiae, Assay Type: Mitotic recombination or gene conversion, Assay Code: YEC+, Evaluation Type: Evaluation A (Pre-1980)) “active; positive”; (Species/Cell Type: Salmonella typhimurium, Escherichia coli, Serratia marcesens, Assay Type: Forward and reverse gene mutation, host-mediated assay, Assay Code: HMN+, Evaluation Type: Evaluation A (Pre-1980)) “active; positive”. Moreover, under setting [2], the call was “active; positive”.
Turning to `OCc1c2ccccc2cc2c1ccc1ccccc12`, under “Species/Cell Type: Mouse prostate cells, Assay Type: Cell transformation, Assay Code: CTM+, Evaluation Type: Evaluation A (Pre-1980)”, the mutagenic call is “active; positive”.
As for `Cc1cc2c(C)c3ccccc3c(C)c2c2ccccc12`, for the setting “Species/Cell Type: Chinese hamster lung (V79) cells, Assay Type: Forward gene mutation at the HPRT or ouabain locus, Assay Code: V79-*, Activation: With metabolic activation, Evaluation Type: Evaluation A (Pre-1980)”, the mutagenic call was “inactive; negative”.
Regarding `C=CN(CC)N=O`, the mutagenic call under setting [1] was “active; positive”.
Turning to `CNC(=O)Oc1ccccc1C(C)C`, the mutagenic call runs as follows: (Species/Cell Type: Bacillus subtilis (H17 vs M45T), Assay Type: Rec-assay, spot test, DNA effects (bacterial DNA repair), Assay Code: REX-, Evaluation Type: Evaluation A (Pre-1980)) “inactive; negative”; (Species/Cell Type: Escherichia coli WP2, Assay Type: Tryptophan reverse gene mutation, Assay Code: WP2-, Evaluation Type: Evaluation A (Pre-1980)) “inactive; negative”.
As to `Nc1ncnc2nc[nH]c12`, the mutagenic call (Species/Cell Type: Allium cepa, Assay Type: Chromosome aberrations, Assay Code: ALC+D, Dose Response: With dose response, Evaluation Type: Evaluation A (Pre-1980)) was “active; positive” and the mutagenic call under setting [3] was “no conclusion”.
`CCNC(=O)N(CC)N=O`: for the setting “Species/Cell Type: Zea mays (corn), Assay Type: Gene mutation, Assay Code: ZEM+D, Dose Response: With dose response, Evaluation Type: Evaluation A (Pre-1980)”, the mutagenic call was “active; positive”.
For `CC(N)=S=O`, the mutagenic call (Species/Cell Type: Mammalian polychromatic erythrocytes, Assay Type: Micronucleus test, chromosome aberrations, Assay Code: MNT+U, Dose Response: Unconfirmed positive response, Evaluation Type: Evaluation B (Post-1980)) is “active; positive”.
For `O=S(=O)(O)c1ccc(O)c2ncccc12`, under setting [4], the mutagenic call was “active; positive”.
Take `O=CNNc1nc(-c2ccc([N+](=O)[O-])o2)cs1`: the mutagenic call is, setting by setting: (Species/Cell Type: Bacillus subtilis (H17 vs M45), Assay Type: Rec-assay, spot test, DNA effects (bacterial DNA repair), Assay Code: REW+, Evaluation Type: Evaluation A (Pre-1980)) “active; positive”; (Species/Cell Type: Escherichia coli WP2, Assay Type: Tryptophan reverse gene mutation, Assay Code: WP2+, Evaluation Type: Evaluation A (Pre-1980)) “active; positive”; (Species/Cell Type: Escherichia coli WP2 UVRA, Assay Type: Tryptophan reverse gene mutation, Assay Code: WPU+, Evaluation Type: Evaluation A (Pre-1980)) “active; positive”; (Species/Cell Type: Mouse, Sex: Male, Assay Type: Sperm morphology, Assay Code: SPI+, Evaluation Type: Evaluation A (Pre-1980)) “active; positive”; under setting [5], “active; positive”. For the same compound, the call under setting [2] was “active; positive”.
Consider `C(CC1CO1)C1CO1` (stereo not given), for which the mutagenic call is, setting by setting: under setting [6], “active; positive”; under setting [7], “active; positive”. In addition, the call (Species/Cell Type: Nonhuman, Assay Code: CCG+L, Evaluation Type: Evaluation A (Pre-1980)) is “active; positive”.
For `CC1=C(/C=C/C(C)=C/C=C/C(C)=C/CO)C(C)(C)CCC1`, the mutagenic call reads like this: under setting [8], “inactive; negative”; under setting [9], “no conclusion”.
With `O.O.O.O.O=C([O-])[O-].[Ni+2].[Ni].[Ni]`, the mutagenic call under setting [10] was “active; positive”.
Take `CSc1ccc2c(c1)N(CCC1CCCCN1C)c1ccccc1S2` (stereo not given): the mutagenic call is, setting by setting: under setting [11], “active; positive”; (Species/Cell Type: Drosophila melanogaster, Sex: Male, Assay Type: Heritable translocation test, chromosome aberrations, Assay Code: DHT+, Evaluation Type: Evaluation A (Pre-1980)) “active; positive”; (Species/Cell Type: Mammalian polychromatic erythrocytes, Assay Type: Micronucleus test, chromosome aberrations, Assay Code: MNTT, Evaluation Type: Evaluation B (Post-1980)) “no conclusion”.
For `CN=C1CN(O)C(c2ccccc2)=c2cc(Cl)ccc2=N1`, the mutagenic call is, setting by setting: (Species/Cell Type: Mammalian polychromatic erythrocytes, Assay Type: Micronucleus test, chromosome aberrations, Assay Code: MNT+, Evaluation Type: Evaluation B (Post-1980)) “active; positive”; (Species/Cell Type: Saccharomyces cerevisiae, Assay Type: Mitotic recombination or gene conversion, Assay Code: YEC-*, Activation: With metabolic activation, Evaluation Type: Evaluation A (Pre-1980)) “inactive; negative”; under setting [12], “no conclusion”; (Species/Cell Type: Salmonella typhimurium, Assay Type: Forward and reverse gene mutation, host-mediated assay, Assay Code: HMAT, Evaluation Type: Evaluation A (Pre-1980)) “no conclusion”.
As for `O=NN1CCCN(N=O)CC1`, under setting [4], the mutagenic call is “active; positive”.
Take `CN(O)C(=O)c1ccc2ccccc2c1`: under setting [10], the mutagenic call was “active; positive”.
Regarding `ClCC1(Cl)OC1Cl` (stereo not given), the mutagenic call is “active; positive” under setting [6] and “active; positive” (Species/Cell Type: Neurospora crassa, Assay Type: Reverse gene mutation, Assay Code: NER+, Evaluation Type: Evaluation A (Pre-1980)).
On to `C=CC(O)c1ccc2c(c1)OCO2` (stereo not given), for which the mutagenic call is, setting by setting: under setting [3], “no conclusion”; (Species/Cell Type: Escherichia coli polA (W3119 vs P3478), Assay Type: Rec-assay, DNA effects (bacterial DNA repair), Assay Code: RE1-, Evaluation Type: Evaluation A (Pre-1980)) “inactive; negative”; (Species/Cell Type: Human diploid fibroblasts, Assay Type: Unscheduled DNA synthesis (UDS) in vitro, DNA effects, Assay Code: UDH+, Evaluation Type: Evaluation A (Pre-1980)) “active; positive”; (Species/Cell Type: Saccharomyces cerevisiae, Assay Type: Mitotic recombination or gene conversion, Assay Code: YEH+/-*, Activation: With metabolic activation, Evaluation Type: Evaluation A (Pre-1980)) “inactive; positive without activation, negative with activation”; (Species/Cell Type: Salmonella typhimurium (one or more of the five standard strains: TA98, TA100, TA1535, TA1537, and TA1538), Assay Type: Histidine reverse gene mutation, Ames assay, Assay Code: SAL-, Evaluation Type: Evaluation A (Pre-1980)) “inactive; negative”. Moreover, under setting [2], the call was “active; positive”.
For the compound `CC1=C(/C=C/C(C)=C/C=C/C(C)=C/C(=O)O)C(C)(C)CCC1`, the mutagenic call by setting is: (Species/Cell Type: Human, Assay Type: Sister-chromatid exchange (SCE) in vitro, Assay Code: SC1+D, Dose Response: With dose response, Evaluation Type: Evaluation A (Pre-1980)) “active; positive”; under setting [9], “no conclusion”.
With `COc1cc(=O)oc(/C=C/C=C/C=C/C(C)=C/[C@]2(C)O[C@H](C)[C@](C)(O)[C@H]2O)c1C`, the mutagenic call (Species/Cell Type: Bacillus subtilis (H17 vs M45), Assay Type: Rec-assay, spot test, DNA effects (bacterial DNA repair), Assay Code: REW-, Evaluation Type: Evaluation A (Pre-1980)) was “inactive; negative”.
For `NS(=O)(=O)c1cc2c(cc1Cl)NC=NS2(=O)=O`, the mutagenic call under setting [12] is “no conclusion”.
`Cc1ccc2cccc([N+](=O)[O-])c2n1`: under setting [5], the mutagenic call is “active; positive”.
As to `N#Cc1ccc(N)cc1`, under setting [8], the mutagenic call was “inactive; negative”.
Take `Nc1ccc(-c2ccc(F)cc2)cc1`: the mutagenic call (Species/Cell Type: Mouse embryo (AKR/ME) cells, Assay Type: Cell transformation, Assay Code: CTK+, Evaluation Type: Evaluation A (Pre-1980)) was “active; positive”.
Consider `CN(C)P(=O)(N1CC1)N1CC1`, for which the mutagenic call is “active; positive” under setting [11]; “active; positive” (Species/Cell Type: Human lymphocytes, Assay Type: Sister-chromatid exchange (SCE) in vitro, Assay Code: SCL+D, Dose Response: With dose response, Evaluation Type: Evaluation B (Post-1980)); “active; positive” (Species/Cell Type: Human, Assay Type: Sister-chromatid exchange (SCE) in vitro, Assay Code: SC1+D, Dose Response: With dose response, Evaluation Type: Evaluation B (Post-1980)); “active; positive” (Species/Cell Type: Nonhuman, Assay Type: Chromosome aberrations in vitro, Assay Code: CY&+, Evaluation Type: Evaluation A (Pre-1980)); “active; positive” under setting [7].
